Test results published in US7834013B2, “Aminophenylcyclopropyl carboxylic acids and derivatives as agonists to GPR40” (GlaxoSmithKline LLC, priority 2003, dated 2010).
Counter-ions that a name gives are not always drawn.

Target: T1, GPR40 (Homo sapiens, UniProt O14842)
T1 construct: expressed in transfected cells
Test: GPR40 SAR Primary Assay (Elk-1/Gal4-luc+ reporter, luciferase activity)
Type: cell-based
Details: stable GPR40 Elk-1/Gal4-luc+ CHO cell line, 5 hours incubation
Procedure: An existing stable GPR40 Elk-1/Gal4-luc^+ CHO cell line generated by electroporation and functional cloning was used. Cells were maintained in a humidified incubator at 37° C./5% CO2 in complete media containing DMEM/F12 (Gibco, #11039-021), 5% FBS (Gibco, #16140-071) and 1% Glutamine (Gibco, #25030-081). Cell maintenance passages were made at 1:40 dilution every 3-4 days. Forty eight hours prior to assay, 15e6 cells were added to 200 ml of complete media then seeded into a 1200 cm^2-cell factory and returned to a humidified incubator at 37° C./5% CO2. 20 hours prior to assay, the growth media was removed and replaced with 200 ml of serum-free DMEM/F12 to quiesce background activity. At the time of assay, cells were harvested using non-enzymatic cell dissociation solution (Sigma, #C-5914), washed and counted. The 20 hour starve media was collected and used as condition media for cell assay plating. Cells were plated at a concentration of 10,000 cells/well in a total well volume of […] in black 96-well clear bottom polystyrene plates (CoStar, #3904). Test compounds were prepared as serial dilutions in 100% DMSO, then 1 ul was delivered to each well resulting in a final concentration of 1% DMSO. The plates were then returned to a humidified incubator at 37° C./5% CO2 for 5 hours. Following the incubation, the medium was replaced with 50 ul of a 1:1 mixture of SteadyGlo™ (Promega, #E2550) and dPBS containing 1 mM CaCl2 and 1 mM MgCl2. Plates were then sealed and subjected to dark adaptation at room temperature for 10 minutes. Luciferase activity was measured on a Packard TopCount™ microplate scintillation counter using 2 seconds per well count time.
Data analysis was performed using standard methods.
The Normalization Equation used was 100*(Unknown compound response−Background response)/(Agonist Max response−Background response).
The Curve Fit Function used was y=((Vmax*x^n)/(K^n+x^n))+Y2.
A percent max response and pEC50 were recorded for each compound. Although specific pEC50 values are given, these values should be considered exemplary. Those skilled in the art will appreciate the variability in performing and recording the biological activity assays that are herein described. The compounds of the present invention provide a pEC50 of at least 5.0.

T1 sequence (O14842 whole entry): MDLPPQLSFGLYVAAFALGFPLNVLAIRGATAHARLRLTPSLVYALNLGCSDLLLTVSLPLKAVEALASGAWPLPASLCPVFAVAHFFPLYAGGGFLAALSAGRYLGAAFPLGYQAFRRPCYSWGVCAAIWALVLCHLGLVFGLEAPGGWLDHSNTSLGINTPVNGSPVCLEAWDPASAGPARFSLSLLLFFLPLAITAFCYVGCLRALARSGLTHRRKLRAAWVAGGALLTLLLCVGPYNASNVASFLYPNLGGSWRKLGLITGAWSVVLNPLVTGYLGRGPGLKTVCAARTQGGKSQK

| EC50 [µM] | Structure (SMILES) |
| --- | --- |
| 0.0158 | CC(C)c1nc(-c2ccc(C(F)(F)F)cc2)sc1CNc1ccc([C@@H]2C[C@H]2C(=O)O)cc1 (racemic) [Example 14, Racemic-(trans)-2-{4-[({4-isopropyl-2-[4-(trifluoromethyl)phenyl]-1,3-thiazol-5-yl}methyl)amino]phenyl}cyclopropanecarboxylic Acid] |
| 0.126 | O=C(O)[C@@H]1C[C@H]1c1ccc(NCc2ccc(-c3ccc(Cl)cc3)o2)cc1 (racemic) [Example 15, Racemic-(trans)-2-[4-({[5-(4-chlorophenyl)-2-furanyl]methyl}amino)phenyl]cyclopropanecarboxylic Acid] |
| 0.0631 | O=C(O)[C@@H]1C[C@H]1c1ccc(NCc2ccc(OCc3ccccc3)cc2)cc1 (racemic) [Example 16, Racemic-(trans)-2-{4-[({4-[(phenylmethyl)oxy]phenyl}methyl)amino]phenyl}cyclopropanecarboxylic Acid trifluoroacetate] |
| 0.251 | Cc1nc(Oc2ccc(F)c(F)c2)sc1CNc1ccc([C@@H]2C[C@H]2C(=O)O)cc1 (racemic) [Example 17, Racemic-(trans)-2-{4-[({2-[(3,4-difluorophenyl)oxy]-4-methyl-1,3-thiazol-5-yl}methyl)amino]phenyl}cyclopropanecarboxylic Acid] |
| 0.251 | O=C(O)[C@@H]1C[C@H]1c1ccc(NCc2ccc(-c3ccc(C(F)(F)F)cc3)o2)cc1 (racemic) [Example 18, Racemic-(trans)-2-{4-[({5-[4-(trifluoromethyl)phenyl]-2-furanyl}methyl)amino]phenyl}cyclopropanecarboxylic Acid Trifluoroacetate] |
| 0.0631 | O=C(O)[C@@H]1C[C@H]1c1ccc(NCc2ccc(-c3ccc(C(F)(F)F)cc3)s2)cc1 (racemic) [Example 19, Racemic-(trans)-2-{4-[({5-[4-(trifluoromethyl)phenyl]-2-thienyl}methyl)amino]phenyl}cyclopropanecarboxylic Acid Trifluoroacetate] |
| 0.158 | O=C(O)[C@@H]1C[C@H]1c1ccc(NCc2cc(-c3ccc(C(F)(F)F)cc3)co2)cc1 (racemic) [Example 20, Racemic-(trans)-2-{4-[({4-[4-(trifluoromethyl)phenyl]-2-furanyl}methyl)amino]phenyl}cyclopropanecarboxylic Acid] |
| 0.0251 | O=C(O)[C@H]1C[C@@H]1c1ccc(NCc2cccc(Cc3ccccc3)c2)cc1 (racemic) [Example 21, Racemic-(trans)-2-[4-({[3-(phenylmethyl)phenyl]methyl}amino)phenyl]cyclopropanecarboxylic Acid Trifluoroacetate] |
| 0.316 | O=C(O)[C@H]1C[C@@H]1c1ccc(NCc2cccc(Oc3ccc([N+](=O)[O-])cc3)c2)cc1 (racemic) [Example 22, Racemic-(trans)-2-{4-[({3-[(4-nitrophenyl)oxy]phenyl}methyl)amino]phenyl}cyclopropanecarboxylic Acid Trifluoroacetate] |
| 0.0316 | O=C(O)[C@H]1C[C@@H]1c1ccc(NCc2cccc(Sc3ccccc3)c2)cc1 (racemic) [Example 23, Racemic-(trans)-2-[4-({[3-(phenylthio)phenyl]methyl}amino)phenyl]cyclopropanecarboxylic Acid Trifluoroacetate] |
| 0.2 | Nc1ccc(Oc2cccc(CNc3ccc([C@H]4C[C@@H]4C(=O)O)cc3)c2)cc1 (racemic) [Example 24, Racemic-(trans)-2-{4-[({3-[(4-aminophenyl)oxy]phenyl}methyl)amino]phenyl}cyclopropanecarboxylic Acid Trifluoroacetate] |
| 0.02 | NC(=O)C1CC1c1ccc(NCc2ccc(-c3ccccc3)cc2)cc1 (racemic) [Example 35, Racemic-(trans)-2-{4-[(4-biphenylmethyl)amino]phenyl}cyclopropanecarboxamide] |
| 0.251 | NC(=O)[C@@H]1C[C@H]1c1ccc(NCc2ccc(-c3ccccn3)cc2)cc1 (racemic) [Example 36, Racemic-(trans)-2-[4-({[4-(2-pyridinyl)phenyl]methyl}amino)phenyl]cyclopropanecarboxamide] |
| 0.01 | Cc1nc(-c2ccc(C(F)(F)F)cc2)sc1CNc1ccc([C@@H]2C[C@H]2C(=O)NCc2ccncc2)cc1 (racemic) [Example 37, Racemic-(trans)-2-{4-[({4-methyl-2-[4-(trifluoromethyl)phenyl]-1,3-thiazol-5-yl}methyl)amino]phenyl}-N-(4-pyridinylmethyl)cyclopropanecarboxamide] |
| 0.02 | Cc1nc(-c2ccc(C(F)(F)F)cc2)sc1CNc1ccc([C@@H]2C[C@H]2C(N)=O)cc1 (racemic) [Example 43, Racemic-(trans)-2-{4-[({4-methyl-2-[4-(trifluoromethyl)phenyl]-1,3-thiazol-5-yl}methyl)amino]phenyl}cyclopropanecarboxamide] |
| 0.01 | Cc1nc(-c2ccc(C(F)(F)F)cc2)sc1CNc1ccc([C@@H]2C[C@H]2C(=O)NC(C)C)cc1 (racemic) [Example 45, Racemic-(trans)-N-isopropyl-2-{4-[({4-methyl-2-[4-(trifluoromethyl)phenyl]-1,3-thiazol-5-yl}methyl)amino]phenyl}cyclopropanecarboxamide] |
| 0.0631 | Cc1nc(-c2ccc(C(F)(F)F)cc2)sc1CNc1ccc([C@@H]2C[C@H]2C(=O)N(C)C)cc1 (racemic) [Example 46, Racemic-(trans)-N,N-dimethyl-2-{4-[({4-methyl-2-[4-(trifluoromethyl)phenyl]-1,3-thiazol-5-yl}methyl)amino]phenyl}cyclopropanecarboxamide] |
| 0.01 | O=C(NCc1ccncc1)[C@@H]1C[C@H]1c1ccc(NCc2cccc(Oc3ccccc3)c2)cc1 (racemic) [Example 47, Racemic-(trans)-2-[4-({[3-(phenyloxy)phenyl]methyl}amino)phenyl]-N-(4-pyridinylmethyl)cyclopropanecarboxamide] |
| 0.0316 | COc1ccc(CNC(=O)[C@@H]2C[C@H]2c2ccc(NCc3cccc(Oc4ccccc4)c3)cc2)cc1 (racemic) [Example 48, Racemic-(trans)-N-(4-methoxybenzyl)-2-{4-[(3-phenoxybenzyl)amino]phenyl}cyclopropanecarboxamide] |
| 0.0316 | O=C(NCc1ccc(C(F)(F)F)cc1)[C@@H]1C[C@H]1c1ccc(NCc2cccc(Oc3ccccc3)c2)cc1 (racemic) [Example 49, Racemic-(trans)-2-{4-[(3-phenoxybenzyl)amino]phenyl}-N-[4-(trifluoromethyl)benzyl]cyclopropanecarboxamide] |
| 0.251 | O=C(NCCN1CCOCC1)[C@@H]1C[C@H]1c1ccc(NCc2cccc(Oc3ccccc3)c2)cc1 (racemic) [Example 50, Racemic-(trans)-N-(2-morpholin-4-ylethyl)-2-{4-[(3-phenoxybenzyl)amino]phenyl}cyclopropanecarboxamide] |
| 0.0501 | O=C(NCC(F)(F)F)[C@@H]1C[C@H]1c1ccc(NCc2cccc(Oc3ccccc3)c2)cc1 (racemic) [Example 51, Racemic-(trans)-2-{4-[(3-phenoxybenzyl)amino]phenyl}-N-(2,2,2-trifluoroethyl)cyclopropanecarboxamide] |
| 0.0158 | CC(C)NC(=O)[C@@H]1C[C@H]1c1ccc(NCc2sc(-c3ccc(C(F)(F)F)cc3)nc2C(C)C)cc1 (racemic) [Example 52, Racemic-(trans)-N-isopropyl-2-{4-[({4-isopropyl-2-[4-(trifluoromethyl)phenyl]-1,3-thiazol-5-yl}methyl)amino]phenyl}cyclopropanecarboxamide] |
| 0.631 | O=C(O)[C@@H]1C[C@H]1c1ccc(NCc2cccc(Oc3ccccc3)c2)cc1 (single isomer, unassigned) [Example 25] |
| 0.00501 | Cc1nc(-c2ccc(C(F)(F)F)cc2)sc1CNc1ccc([C@@H]2C[C@H]2C(=O)NCc2ccncc2)cc1 (single isomer, unassigned) [Example 38, Enantiomerically Enriched (trans)-2-{4-[({4-methyl-2-[4-(trifluoromethyl)phenyl]-1,3-thiazol-5-yl}methyl)amino]phenyl}-N-(4-pyridinylmethyl)cyclopropanecarboxamide TFA Salt] |
| 0.01 | Cc1nc(-c2ccc(C(F)(F)F)cc2)sc1CNc1ccc([C@@H]2C[C@H]2C(N)=O)cc1 (single isomer, unassigned) [Example 39, Enantiomerically Enriched (trans)-2-{4-[({4-methyl-2-[4-(trifluoromethyl)phenyl]-1,3-thiazol-5-yl}methyl)amino]phenyl}cyclopropanecarboxamide] |
